Reference: paper PMC8271538, “Chemical Modulation of the 1-(Piperidin-4-yl)-1,3-dihydro-2H-benzo[d]imidazole-2-one Scaffold as a Novel NLRP3 Inhibitor” (Molecules, 2021)
Where “and” joins values, the source holds several entries; their conditions need not be identical. Equal values may be shown once. Read-outs that look alike come from different tables or passages of the source. Marks after values point to notes of the source that are not given here.

Tests used:
DNBS-induced colitis = system: DNBS-induced colitis; parameters: method as in PMID 28410442, PMID 30559669; settings: oral administration in mice at both 50 and 25 mg/kg; cited from earlier work
[1] = system: isolated recombinant NLRP3; parameters: method as in PMID 28410442; settings: cited from earlier work
[2] = system: NLRP3-dependent pyroptosis in differentiated THP-1 cells; test: NLRP3-dependent pyroptosis (LDH release) in PMA-differentiated, LPS-primed, ATP-triggered THP-1 cells; assay type: cell-based, human; settings: for Pyroptosis Decrease, % inhibition at 10 µM / inhibition at 10 µM: 10 µM test compound, 1 h before ATP (5 mM, 90 min), vs vehicle-treated cells, mean ± SEM, NA = not active at 10 µM; for inhibition at 10 µM: THP-1, 1.5 h, read-out: Pyroptosis Decrease, % inhibition at 10 µM
human recombinant NLRP3 = biological target: T1, human recombinant NLRP3 (Homo sapiens, UniProt Q96P20); test: In vitro NLRP3 ATPase activity, on-bead ADP-Glo assay with immobilised NLRP3-GFP; assay type: biochemical; settings: for Inhibition of NLRP3 ATPase activity (% reduction in ATP hydrolysis relative to vehicle control) / inhibition at 100 µM: 100 μM compound, ATP 800 μM, mean ± SEM, n = 4; for inhibition at 100 µM: read-out: Inhibition of NLRP3 ATPase activity (% reduction in ATP hydrolysis relative to vehicle control); for NLRP3 ATPase inhibition at 1 mM compared with 100 µM: 1 mM vs 100 µM compound, data not shown
T1 construct: made in house; host or cells: HEK293T cells (transient transfection, captured from lysate on GFP-Trap Sepharose)

[3] = system: IL-1β release in differentiated THP-1 cells; test: IL-1β release (ELISA) in supernatants of LPS/ATP-treated differentiated THP-1 cells; assay type: cell-based, human; settings: same experiments as pyroptosis, vs vehicle-treated cells, mean ± SEM; for inhibition at 10 µM: Homo sapiens, THP-1, 10 µM test compound; for IL-1β Inhibition, % inhibition at 10 µM: 10 µM test compound
Procedure: Different techniques could be used to study NLRP3 inhibitors; the use of differentiated THP-1 cells treated with NLRP3 activating stimuli is suitable for the screening of large series of compounds [48]. All the synthesised compounds (Figure 2) were evaluated for their NLRP3 inhibitory activity by measuring their ability to prevent NLRP3-dependent pyroptosis in differentiated THP-1 cells. THP-1 cells were differentiated into macrophages by treatment with phorbol-myristate acetate (PMA; 50 nM; 24 h) and then treated with lipopolysaccharide (LPS; 10 µg/mL; 4 h) to promote NLRP3 expression. The cells were then incubated with test compounds at the fixed concentration of 10 µM for 1 h. Test compounds were dissolved in serum free medium containing 0.1% DMSO as the vehicle. NLRP3 was activated by the addition of ATP (5 mM), and the pyroptotic cell death was evaluated after 1.5 h by measuring the lactate dehydrogenase (LDH) released in the cell supernatants. The obtained results, expressed as pyroptosis% decrease with respect to vehicle-treated cells, are collected in Table 1. In the same experiments, the release of IL-1β was measured via an ELISA assay and the results, expressed as % inhibition of IL-1β release versus vehicle-treated cells, are reported in Table 1. Finally, the cytotoxicity of the synthesised compounds was evaluated by MTT assay after treatment of THP-1 cells with increasing concentration of test compounds (0.1–100 µM) for 72 h. […] The structural modulation of compound 2 was then carried out in order to understand whether it was possible to restore/increase the activity without the re-introduction of a Michael acceptor substructure.
Human myelomonocytic THP-1 cells were cultured in RPMI 1640 medium (Aurogene, Rome, Italy) supplemented with fetal bovine serum (10%; Aurogene), L-glutamine (2 mM; Aurogene), penicillin (100 IU/mL; Aurogene) and streptomycin ([…]; Aurogene). Cell culture medium was replaced every 2−3 days, and the cultures were maintained at 37 °C and 5% CO2 in a fully humidified incubator. The day before each experiment, cells were plated in 48-well culture plates (90.000 cells/well) and were differentiated by treatment with PMA (50 nM, 24 h; Sigma-Aldrich). PMA-differentiated THP-1 cells were washed twice with phosphate-buffered saline (PBS) and primed with LPS (10 μg/mL, 4 h; Sigma-Aldrich) in serum-free medium. Cells were then incubated with compounds dissolved in medium containing 0.1% DMSO for 1 h and cell death was triggered with ATP (5 mM, 90 min; Sigma-Aldrich). MCC950 (Sigma-Aldrich batch #45216 and batch #85021 and from Crysdot (product n. CD31002496; OS05876-18070932) was used in the experiments.
IL-1β release was quantified in differentiated THP-1 supernatant, obtained as previously described, using Human IL-1 beta Uncoated ELISA kit (Invitrogen, Waltham, MA, USA), according to the manufacture’s instruction.

[4] = 72 h treatment, 0.1–100 µM, MTT, TC50 ± SEM of three experiments

T1 sequence (Q96P20 whole entry): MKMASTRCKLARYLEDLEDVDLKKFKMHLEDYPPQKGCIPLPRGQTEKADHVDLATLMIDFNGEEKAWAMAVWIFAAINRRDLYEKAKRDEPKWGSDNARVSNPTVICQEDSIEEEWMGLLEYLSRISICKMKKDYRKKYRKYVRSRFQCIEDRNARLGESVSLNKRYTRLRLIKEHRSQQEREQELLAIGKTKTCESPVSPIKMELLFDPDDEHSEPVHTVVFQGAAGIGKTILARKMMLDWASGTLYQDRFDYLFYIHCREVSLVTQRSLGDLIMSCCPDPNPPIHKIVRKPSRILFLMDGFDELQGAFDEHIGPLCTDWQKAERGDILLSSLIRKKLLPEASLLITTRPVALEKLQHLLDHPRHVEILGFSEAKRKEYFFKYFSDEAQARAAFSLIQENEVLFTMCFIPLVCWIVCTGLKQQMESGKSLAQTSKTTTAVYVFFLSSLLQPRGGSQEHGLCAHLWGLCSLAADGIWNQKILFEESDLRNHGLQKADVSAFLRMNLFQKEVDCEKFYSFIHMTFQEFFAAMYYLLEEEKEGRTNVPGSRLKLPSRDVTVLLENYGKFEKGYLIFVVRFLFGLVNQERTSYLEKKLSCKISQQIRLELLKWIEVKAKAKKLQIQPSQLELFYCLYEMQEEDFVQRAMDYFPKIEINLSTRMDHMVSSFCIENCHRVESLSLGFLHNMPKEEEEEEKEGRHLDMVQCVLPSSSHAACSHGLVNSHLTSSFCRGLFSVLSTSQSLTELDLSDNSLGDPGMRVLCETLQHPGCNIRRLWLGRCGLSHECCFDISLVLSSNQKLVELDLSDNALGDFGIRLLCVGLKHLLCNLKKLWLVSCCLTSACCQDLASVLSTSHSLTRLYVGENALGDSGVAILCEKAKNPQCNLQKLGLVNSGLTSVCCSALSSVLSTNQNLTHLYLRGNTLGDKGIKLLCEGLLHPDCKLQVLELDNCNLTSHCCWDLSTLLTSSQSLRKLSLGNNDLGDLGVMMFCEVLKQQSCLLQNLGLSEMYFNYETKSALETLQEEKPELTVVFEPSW

| Compound | Inhibition of NLRP3 ATPase activity (% reduction in ATP hydrolysis relative to vehicle control) (human recombinant NLRP3) | inhibition at 100 µM (human recombinant NLRP3) [%] | NLRP3 ATPase inhibition at 1 mM compared with 100 µM (human recombinant NLRP3) | Prevention of DNBS-induced colitis (DNBS-induced colitis) | Inhibition of ATP hydrolysis by NLRP3 [1] | Cytotoxicity TC50 (THP-1 cells; [4]) | Pyroptosis Decrease, % inhibition at 10 µM [2] | inhibition at 1 µM ([2]; Homo sapiens, THP-1, 1 µM test compound (Figure 3)) [%] | inhibition at 10 µM ([2]; Homo sapiens) [%] | inhibition at 10 µM [3] [%] | Cytotoxicity TC50 (THP-1 cells) [µM] | Pyroptosis Decrease, % inhibition at 10 µM ([2]; listed as 6 (INF148)) | IL-1β Inhibition, % inhibition at 10 µM [3] | IL-1β Inhibition, % inhibition at 10 µM ([3]; listed as 6 (INF148)) |
| --- | --- | --- | --- | --- | --- | --- | --- | --- | --- | --- | --- | --- | --- | --- |
| C=C(Cc1ccccc1Cl)C(=O)OCC [INF39] |  |  |  | able to prevent DNBS-induced colitis | inhibited ATP hydrolysis |  |  |  |  |  |  |  |  |  |
| C=C(Cc1ccccc1Cl)C(=O)N1CCC(n2c(=O)[nH]c3ccccc32)CC1 [Compound 1, 1-(1-(2-(2-chlorobenzyl)acryloyl)piperidin-4-yl)-1,3-dihydro-2H-benzo[d]imidazol-2-one] |  | 28.4 ± 2.6 |  |  |  | 32.9 ± 19 µM and 32.9 ± 19.0 µM |  |  | 24.9 ± 6.3 | 19.4 ± 0.4 |  |  | 14.4 ± 5.0% |  |
| CCOC(=O)Cn1c(=O)n(C(=O)CCc2ccccc2Cl)c2ccccc21 [Compound 17, Ethyl 2-(3-(3-(2-chlorophenyl)propanoyl)-2-oxo-2,3-dihydro-1H-benzo[d]-imidazol-1-yl)acetate] | inactive |  |  |  |  | 95.4 ± 1.1 µM |  |  | 25.1 ± 4 | 24.2 ± 11.2 |  |  |  |  |

Further lines, with some results ahead:

| Inhibition of NLRP3 ATPase activity (% reduction in ATP hydrolysis relative to vehicle control) (human recombinant NLRP3) | inhibition at 100 µM (human recombinant NLRP3) [%] | NLRP3 ATPase inhibition at 1 mM compared with 100 µM (human recombinant NLRP3) | Compound | Prevention of DNBS-induced colitis (DNBS-induced colitis) | Inhibition of ATP hydrolysis by NLRP3 [1] | Cytotoxicity TC50 (THP-1 cells; [4]) | Pyroptosis Decrease, % inhibition at 10 µM [2] | inhibition at 1 µM ([2]; Homo sapiens, THP-1, 1 µM test compound (Figure 3)) [%] | inhibition at 10 µM ([2]; Homo sapiens) [%] | inhibition at 10 µM [3] [%] | Cytotoxicity TC50 (THP-1 cells) [µM] | Pyroptosis Decrease, % inhibition at 10 µM ([2]; listed as 6 (INF148)) | IL-1β Inhibition, % inhibition at 10 µM [3] | IL-1β Inhibition, % inhibition at 10 µM ([3]; listed as 6 (INF148)) |
| --- | --- | --- | --- | --- | --- | --- | --- | --- | --- | --- | --- | --- | --- | --- |
| able to reduce ATPase activity | 27.2 ± 6.3 | no significant differences | O=C(O)Cn1c(=O)n(C(=O)CCc2ccccc2Cl)c2ccccc21 [Compound 18, 2-(3-(3-(2-chlorophenyl)propanoyl)-2-oxo-2,3-dihydro-1H-benzo[d]-imidazol-1-yl)acetic acid] |  |  | >100 µM | active | 20 to 30 | 36.4 ± 11.1 | 21.1 ± 3.1 |  |  |  |  |
| 22.5 ± 1.4% |  | no significant differences | 3-(2-chlorophenyl)-N-(2-oxo-2-(4-(2-oxo-2,3-dihydro-1H-benzo[d]imidazol-1-yl)piperidin-1-yl)ethyl)propenamide [Compound 6] |  |  |  | about 35% |  |  |  | 61.7 ± 1.0 | 35.0 ± 6.9 ^d % | 18–21% | 21.0 ± 3.2 ^d % |
